Key:
[1] = tested on: A549-ACE2 infected with SARS-CoV-2; assay: SARS-CoV-2 infection rate relative to DMSO; higher = more infection; details: 24 h
A549-ACE2 [2] = assay: phospholipidosis EC50; higher = less potent phospholipidosis inducer
HepG2 [3] = assay: drug sensitivity score (DSS) for viability; higher = more toxic; extreme values may be limits of the assay; details: 72 h
Vero E6 [4] = assay: as above; details: 72 h
Caco-2 [5] = assay: as above; details: 72 h
U2OS [6] = assay: as above; details: 72 h
Calu-3 [7] = assay: as above; details: 72 h
[8] = tested on: A549-ACE2 infected with SARS-CoV-2; assay: morphology score (similarity to uninfected cells); higher = more like uninfected cells; details: 24 h
A549-ACE2 [9] = assay: drug-induced phospholipidosis relative to tamoxifen; higher = more phospholipidosis
[10] = tested on: A549-ACE2 infected with SARS-CoV-2; assay: cell count relative to DMSO; higher = less toxic; details: 24 h
HepG2 [11] = assay: relative viability EC50 (midpoint between 100% and the lowest measured viability); higher = less toxic; details: 72 h
Caco-2 [12] = assay: as above; details: 72 h
U2OS [13] = assay: as above; details: 72 h
Calu-3 [14] = assay: as above; details: 72 h
HepG2 [15] = assay: cell viability relative to DMSO; higher = less toxic; details: 72 h
Vero E6 [16] = assay: as above; details: 72 h
Caco-2 [17] = assay: as above; details: 72 h
U2OS [18] = assay: as above; details: 72 h
Calu-3 [19] = assay: as above; details: 72 h
Vero E6 [20] = assay: relative viability EC50 (midpoint between 100% and the lowest measured viability); higher = less toxic; details: 72 h

Cc1[nH]c(/C=C2\C(=O)Nc3ccc(S(=O)(=O)Cc4c(Cl)cccc4Cl)cc32)c(C)c1C(=O)N1CCC[C@@H]1CN1CCCC1
Details	SARS-CoV-2 infection rate [%]	cell count [%]	cell viability [%]	morphology score	phospholipidosis EC50 [µM]
A549-ACE2 [2], 24 h	–	–	–	–	3.45
A549-ACE2 [2], 48 h	–	–	–	–	3.61
A549-ACE2 [2], 72 h	–	–	–	–	3.54
Caco-2 [17], 1 nM	–	–	90.9	–	–
Caco-2 [17], 10 nM	–	–	99.2	–	–
Caco-2 [17], 100 nM	–	–	104	–	–
Caco-2 [17], 1000 nM	–	–	103	–	–
Caco-2 [17], 10000 nM	–	–	3.7	–	–
Calu-3 [19], 1 nM	–	–	100	–	–
Calu-3 [19], 10 nM	–	–	98.2	–	–
Calu-3 [19], 100 nM	–	–	109	–	–
Calu-3 [19], 1000 nM	–	–	100	–	–
Calu-3 [19], 10000 nM	–	–	4.3	–	–
HepG2 [15], 1 nM	–	–	102	–	–
HepG2 [15], 10 nM	–	–	96.9	–	–
HepG2 [15], 100 nM	–	–	102	–	–
HepG2 [15], 1000 nM	–	–	104	–	–
HepG2 [15], 10000 nM	–	–	3.3	–	–
U2OS [18], 1 nM	–	–	97.2	–	–
U2OS [18], 10 nM	–	–	100	–	–
U2OS [18], 100 nM	–	–	95.7	–	–
U2OS [18], 1000 nM	–	–	103	–	–
U2OS [18], 10000 nM	–	–	0.9	–	–
Vero E6 [16], 1 nM	–	–	99.9	–	–
Vero E6 [16], 10 nM	–	–	97.5	–	–
Vero E6 [16], 100 nM	–	–	101	–	–
Vero E6 [16], 1000 nM	–	–	91.1	–	–
Vero E6 [16], 10000 nM	–	–	57	–	–
[1], 0.1 µM	109	–	–	–	–
[1], 0.3 µM	83	–	–	–	–
[1], 1 µM	74	–	–	–	–
[1], 3 µM	26	–	–	–	–
[8], 0.1 µM	–	–	–	-0.01	–
[8], 0.3 µM	–	–	–	0.51	–
[8], 1 µM	–	–	–	0.6	–
[8], 3 µM	–	–	–	0.73	–
[10], 0.1 µM	–	98	–	–	–
[10], 0.3 µM	–	109	–	–	–
[10], 1 µM	–	108	–	–	–
[10], 3 µM	–	115	–	–	–

Details	drug sensitivity score	relative viability EC50 [µM]
Caco-2 [5]	5.1	–
Caco-2 [12]	–	3.36
Calu-3 [7]	5.4	–
Calu-3 [14]	–	3.17
HepG2 [3]	5.1	–
HepG2 [11]	–	3.39
U2OS [6]	5.3	–
U2OS [13]	–	3.35
Vero E6 [4]	3.6	–

drug-induced phospholipidosis [%], A549-ACE2 [9]
Details	0.3 µM	0.833333 µM	3.33333 µM	6.66667 µM	10 µM
24 h	20.1	33	77.3	173	149
48 h	14.3	18.9	53.1	177	149
72 h	13.7	15.6	43.6	149	64.6

C[C@@H]1C[C@H]2[C@@H]3CCC4=CC(=O)C=C[C@]4(C)[C@@]3(Cl)[C@@H](O)C[C@]2(C)[C@@]1(OC(=O)c1ccco1)C(=O)CCl [MOMETASONE FUROATE]
Details	SARS-CoV-2 infection rate [%]	cell count [%]	cell viability [%]	morphology score	phospholipidosis EC50 [µM]
A549-ACE2 [2], 24 h	–	–	–	–	3.35
Caco-2 [17], 1 nM	–	–	91.3	–	–
Caco-2 [17], 10 nM	–	–	109	–	–
Caco-2 [17], 100 nM	–	–	85.6	–	–
Caco-2 [17], 1000 nM	–	–	96	–	–
Caco-2 [17], 10000 nM	–	–	83.1	–	–
Calu-3 [19], 1 nM	–	–	98.7	–	–
Calu-3 [19], 10 nM	–	–	101	–	–
Calu-3 [19], 100 nM	–	–	90.3	–	–
Calu-3 [19], 1000 nM	–	–	97.1	–	–
Calu-3 [19], 10000 nM	–	–	90.9	–	–
HepG2 [15], 1 nM	–	–	114	–	–
HepG2 [15], 10 nM	–	–	116	–	–
HepG2 [15], 100 nM	–	–	122	–	–
HepG2 [15], 1000 nM	–	–	97.4	–	–
HepG2 [15], 10000 nM	–	–	105	–	–
U2OS [18], 1 nM	–	–	98.5	–	–
U2OS [18], 10 nM	–	–	101	–	–
U2OS [18], 100 nM	–	–	94	–	–
U2OS [18], 1000 nM	–	–	102	–	–
U2OS [18], 10000 nM	–	–	92.8	–	–
Vero E6 [16], 1 nM	–	–	109	–	–
Vero E6 [16], 10 nM	–	–	100	–	–
Vero E6 [16], 100 nM	–	–	103	–	–
Vero E6 [16], 1000 nM	–	–	102	–	–
Vero E6 [16], 10000 nM	–	–	100	–	–
[1], 0.3 µM	99	–	–	–	–
[1], 3 µM	69	–	–	–	–
[1], 10 µM	28	–	–	–	–
[1], 30 µM	71	–	–	–	–
[8], 0.3 µM	–	–	–	0.19	–
[8], 3 µM	–	–	–	0.42	–
[8], 10 µM	–	–	–	0.6	–
[8], 30 µM	–	–	–	0.34	–
[10], 0.3 µM	–	97	–	–	–
[10], 3 µM	–	103	–	–	–
[10], 10 µM	–	108	–	–	–
[10], 30 µM	–	94	–	–	–

Details	drug sensitivity score	relative viability EC50 [µM]
Caco-2 [5]	0.5	–
Caco-2 [12]	–	> 10
Calu-3 [7]	0	–
Calu-3 [14]	–	> 10
HepG2 [3]	0	–
HepG2 [11]	–	> 10
U2OS [6]	0	–
U2OS [13]	–	> 10
Vero E6 [4]	0	–
Vero E6 [20]	–	> 10

drug-induced phospholipidosis [%], A549-ACE2 [9]
Details	0.3 µM	0.833333 µM	3.33333 µM	6.66667 µM	10 µM	30 µM
24 h	10.4	17.5	33.2	53.3	54.9	51.9
48 h	5.23	13.8	27.7	41.1	38.5	41.2
72 h	-4	-3.08	16.9	30.4	39.5	29.6
